≈ marks a conversion by molar mass, not a printed value. Where two headings read alike, the source gives them in different places.
Legend:
[1] = tested on: various bacterial strains; test: MIC by microliquid dilution method (Example 10, Table 45); type: cell-based
Method: Through use of a ketonitrile derivative of the present invention (Compound No. 4) as a sample, minimum inhibitory concentrations (MIC) of respective bacterial strains were determined by a microliquid dilution method in accordance with the standard procedure authorized by Japan Chemotherapy Association ["Chemotherapy", 29, 76-79, 1981, under the heading "Revised Measurement of Minimum Inhibitory Concentration (MIC)"]. The samples were dissolved in dimethylsulfoxide and diluted with the same amount of sterilized distilled water to prepare a bulk sample liquid of 1,000 µg/ml. The bulk sample was cultured in Mueller-Hinton broth at 37°C for 18 hours.

in vivo = conditions: mouse, oral administration, single dose, suspended in aqueous 0.5% CMC solution, male mice, observed for 14 days
Method: Acute toxicity (LD50) of a ketonitrile derivative of the present invention (Compound No. 4) was tested using male mice (Slc:ddY, 5 weeks old). To groups of each 5 mice, the compounds suspended in aqueous 0.5% CMC solution were forcibly dosed orally at a single time so that the final dosages of 707, 1,000, 1,414, and 2,000 mg/kg were attained. […] As a result, LD50 value under conditions of oral administration was estimated to be higher than 2,000 mg/kg. Thus, the compound was confirmed to be quite non-toxic.
To groups of each 5 mice, the compounds suspended in aqueous 0.5% CMC solution were forcibly dosed orally at a single time so that the final dosages of 500, 1,000, 1,500, and 2,000 mg/kg were attained. […] As a result, the LD50 value was estimated to be higher than 2,000 mg/kg. Thus, the compounds were confirmed to be quite non-toxic.

Staphylococcus aureus = test: MIC by agar plate dilution method (Example 9, Table 44); type: cell-based; conditions: 18 h
Method: (§1) Through use of a ketonitrile derivative of the present invention (Compound No. 4) as a sample, minimum inhibitory concentrations (MIC) of Staphylococcus aureus and Pasteurella from cattle were determined by an agar plate dilution method in accordance with the standard procedure authorized by Japan Chemotherapy Association ["Chemotherapy", 29, 76-79, 1981, under the heading "Revised Measurement of Minimum Inhibitory Concentration (MIC)"]. The samples were dissolved in dimethylsulfoxide and diluted with the same amount of sterilized distilled water to prepare a bulk sample liquid of 1,000 µg/ml. The bulk was diluted into a series of 2-fold dilutions using sterilized distilled water.
(§2) Separately, the bacterial cell suspensions for the test shown in Table 18 were cultured in Mueller-Hinton broth (DIFCO) at 37°C for 18-20 hours in advance. They were controlled to have a bacterial amount of 10^6 CFU/ml by use of Mueller-Hinton broth. The thus-controlled liquids were inoculated to a Muller-Hinton agar plate containing the sample, followed by culturing at 37°C for 18 hours. The concentration at which bacterial growth was no longer observed was taken as the MIC.

Pasteurella from cattle = test: as above; type: cell-based; conditions: 18 h
Method: as §1, §2

[2] = tested on: Pasteurella multocida (Kobe-6); test: Antibacterial activity (IC), broth microplate as in Example 4 (Example 6, Table 41); type: cell-based; conditions: 18 h, origin pig
Method: A suitable amount of a sample was dissolved in dimethylsulfoxide (DMSO), and the resultant solution was diluted with the same amount of sterilized distilled water to prepare a bulk sample of 1,000 µg/ml. Mueller-Hinton broth (product of DIFCO) was dispensed into each well of 96-well microplate. Thereafter, the bulk specimen was added to the first well of a row, and successively diluted (10-fold each time) with sterilized distilled water. Separately, a bacterial cell suspension for the test (Staphylococcus aureus 209-P) which had been cultured in the above-mentioned broth overnight at 37°C was inoculated to each well so that the final inoculation amount of 10^6 CFU/ml was attained. The final concentrations of the samples were 100, 10, and 1 µg/ml.
The antibacterial action was evaluated by the inhibitory concentration (hereinafter abbreviated as IC) at which propagation of the bacteria cultured at 37°C for 18 hours was inhibited. Inhibition was determined by the turbidity of the medium. The expressions "IC≤100", "≤10", and "≤1" indicate that MIC-equivalent values obtained at the succesive […] dilution of the sample are 100-10 µg/ml, 10-1 µg/ml, and not more than 1 µg/ml, respectively. […] (In the subsequent Examples, the same rule applies correspondingly.) Table 39
In a manner similar to that described in Example 4, antibacterial activity of the invention compound was determined. The bacterium used for the test was Pasteurella Kobe-6 (origin: pig; Pasteurella multocida).

[3] = tested on: Staphylococcus aureus 209-P; test: Antibacterial activity (IC), Mueller-Hinton broth, 96-well microplate (Example 4, Table 39); type: cell-based; conditions: 37°C, 18 hours
Outline: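 S. aureus 209-P at 10^6 CFU/ml in Mueller-Hinton broth, compound (DMSO/water) at final 100, 10 and 1 µg/ml, 18 h at 37°C. Growth inhibition scored by turbidity; IC reported as ≤100, ≤10 or ≤1 µg/ml bands.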

[4] = tested on: Staphylococcus aureus TI-1; test: Antibacterial activity (IC), broth microplate as in Example 4 (Example 5, Table 40); type: cell-based; conditions: TI1, 18 h
Outline: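 S. aureus TI-1 at 10^6 CFU/ml in Mueller-Hinton broth exposed to compound at final 100, 10 and 1 µg/ml (DMSO/water stock), 37 °C for 18 h. Growth inhibition judged by turbidity; IC reported as ≤100, ≤10 or ≤1 µg/ml bands.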

CC(Oc1ccc(Oc2ncc(C(F)(F)F)cc2Cl)cc1)C(=O)C(C#N)c1ccc(Cl)c(Cl)c1 (stereo not drawn) [Compound No. 4, 4-[4-(3-chloro-5-trifluoromethyl-2-pyridyloxy)phenoxy]-2-(3,4-dichlorophenyl)-3-oxopentanonitrile]
MIC ([1]; 18 h, Staphylococcus aureus SMITH, read-out: MIC): 3.13 mg/L (≈ 5.91 µM) | MIC ([1]; 18 h, Staphylococcus epidermis 56556, read-out: MIC): 6.25 mg/L (≈ 11.8 µM) | MIC ([1]; 18 h, Streptococcus mitis 11D 685, read-out: MIC): 12.5 mg/L (≈ 23.6 µM) | MIC ([1]; 18 h, Streptococcus pyogenes G-36, read-out: MIC): 6.25 mg/L (≈ 11.8 µM) | MIC ([1]; ATCC6633, 18 h, Bacillus subtilis ATCC 6633, read-out: MIC): 3.13 mg/L (≈ 5.91 µM) | MIC ([1]; ATCC19433, 18 h, Enterococcus faecalis ATCC 19433, read-out: MIC): 6.25 mg/L (≈ 11.8 µM) | MIC ([1]; Staphylococcus aureus M5-1 (Methicillin-resistant Staphylococcus aureus)): 3.13 mg/L (≈ 5.91 µM) | MIC ([1]; Staphylococcus aureus M5-2 (Methicillin-resistant Staphylococcus aureus)): 3.13 mg/L (≈ 5.91 µM) | LD50 at 336 h (in vivo): > 2000 mg/kg | MIC (Staphylococcus aureus; 209P, Staphylococcus aureus 209P, origin Standard strain): 1.56 mg/L (≈ 2.94 µM) | MIC (Staphylococcus aureus; Staphylococcus aureus 1SS1, origin Chicken): 3.13 mg/L (≈ 5.91 µM) | MIC (Staphylococcus aureus; Staphylococcus aureus 3-2, origin Pig): 3.13 mg/L (≈ 5.91 µM) | MIC (Staphylococcus aureus; Staphylococcus aureus TI-1, origin Cattle): 6.25 mg/L (≈ 11.8 µM) | MIC (Pasteurella from cattle; Pasteurella Multosida 1F-17, origin Cattle): 1.56 mg/L (≈ 2.94 µM) | MIC (Pasteurella from cattle; Pasteurella haemolytica 1F-15, origin Cattle): 6.25 mg/L (≈ 11.8 µM) | MIC [2]: 10 to 100 mg/L (≈ 18.9 to 189 µM) | MIC [3]: ≤ 1 mg/L | MIC [4]: ≤ 1 mg/L
